From patent publication US20190292179A1 (BRISTOL-MYERS SQUIBB COMPANY, priority 2016, published 2019)
Where a name gives a salt, the structure may show the parent alone.

How the values were obtained:
[1] = target: T1, HIS-TGFβR1 T204D (Homo sapiens, UniProt P36897, T204D); experiment: HTRF probe-displacement assay with HIS-TGFβR1 T204D; assay type: binding; settings: 1 nM HIS-TGFβR1 T204D, labeled probe at Kd, 1 hour at room temperature
T1 sequence (P36897 34-503 T204D): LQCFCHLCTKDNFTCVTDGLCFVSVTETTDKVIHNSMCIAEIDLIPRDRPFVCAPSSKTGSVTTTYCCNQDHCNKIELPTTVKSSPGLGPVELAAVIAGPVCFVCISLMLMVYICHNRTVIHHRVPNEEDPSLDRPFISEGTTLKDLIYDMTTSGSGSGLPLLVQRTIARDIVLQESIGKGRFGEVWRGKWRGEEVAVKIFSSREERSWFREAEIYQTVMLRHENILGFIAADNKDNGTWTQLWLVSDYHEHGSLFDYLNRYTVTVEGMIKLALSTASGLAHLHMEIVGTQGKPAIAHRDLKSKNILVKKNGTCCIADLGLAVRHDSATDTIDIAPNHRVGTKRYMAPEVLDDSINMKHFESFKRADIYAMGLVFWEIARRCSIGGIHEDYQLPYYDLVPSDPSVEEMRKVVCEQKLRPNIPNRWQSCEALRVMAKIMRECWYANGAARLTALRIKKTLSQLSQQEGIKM
Experimental: (§1) The reaction is incubated for 1 hour at room temperature and the HTRF signal was measured on an Envision plate reader (Ex: 340 nm; Em: 520 nm/495 nm). Inhibition data were calculated by comparison to no enzyme control reactions for 100% inhibition and vehicle-only reactions for 0% inhibition. The final concentration of reagents in the assay are 1 nM HIS-TGFβR1 T204D or HIS-TGFβR2 WT, 0.2 nM anti-HIS detection antibody, labeled small molecule probe (at Kd) and 0.5% DMSO. Dose response curves were generated to determine the concentration required inhibiting 50% of kinase activity (IC50). Compounds were dissolved at 10 mM in dimethylsulfoxide (DMSO) and evaluated at eleven concentrations. IC50 values were derived by non-linear regression analysis.

[2] = target: HIS-TGFβR2 WT (Homo sapiens, UniProt P37173); experiment: HTRF probe-displacement assay with HIS-TGFβR2 WT; assay type: binding; settings: 1 nM HIS-TGFβR2 WT, labeled probe at Kd, 1 hour at room temperature
HIS-TGFβR2 WT, sequence (P37173 23-567): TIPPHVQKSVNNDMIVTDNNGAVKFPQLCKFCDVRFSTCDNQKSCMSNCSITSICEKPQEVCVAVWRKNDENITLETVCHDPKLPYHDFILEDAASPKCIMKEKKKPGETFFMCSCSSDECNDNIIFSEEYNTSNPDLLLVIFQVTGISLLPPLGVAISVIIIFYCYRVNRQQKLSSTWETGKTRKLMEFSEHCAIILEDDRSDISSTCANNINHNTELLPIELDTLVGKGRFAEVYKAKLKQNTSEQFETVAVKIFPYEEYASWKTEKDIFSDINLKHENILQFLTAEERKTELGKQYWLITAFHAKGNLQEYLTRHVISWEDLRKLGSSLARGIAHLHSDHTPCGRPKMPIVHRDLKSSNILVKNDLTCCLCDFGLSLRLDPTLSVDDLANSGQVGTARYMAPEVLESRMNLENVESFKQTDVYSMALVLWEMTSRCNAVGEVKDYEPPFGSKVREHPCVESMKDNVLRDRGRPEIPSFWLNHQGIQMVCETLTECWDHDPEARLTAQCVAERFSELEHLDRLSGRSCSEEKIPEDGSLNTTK
Experimental: as §1

SMILES | IC50 [1] | IC50 [2]
Fc1ccc(-c2n[nH]cc2-c2ccc3ncc(F)n3c2)cc1 [Example 56, 3-fluoro-6-(3-(4-fluorophenyl)-1H-pyrazol-4-yl)imidazo[1,2-a]pyridine] | 0.007 µM | 0.533 µM
Fc1ccc(-c2n[nH]cc2-c2ccc3nccn3c2)cc1 [Example 34, 6-(3-(4-fluorophenyl)-1H-pyrazol-4-yl)imidazo[1,2-a]pyridine] | 0.014 µM | 5.02 µM
Fc1ccc(-c2n[nH]cc2-c2ccn3ncnc3c2)cc1 [Example 29, 7-(3-(4-fluorophenyl)-1H-pyrazol-4-yl)-[1,2,4]triazolo[1,5-a]pyridine] | 0.003 µM | 1.1 µM
CCOC(=O)c1cnc2ccc(-c3cn(C)nc3-c3cccc(C)n3)cn12 [Example 51, ethyl 6-(1-methyl-3-(6-methylpyridin-2-yl)-1H-pyrazol-4-yl)imidazo[1,2-a]pyridine-3-carboxylate] | 0.001 µM | 2.23 µM
Cc1cc(-c2n[nH]cc2-c2ccc3ncc(C#N)n3c2)ccc1F [Example 49, 6-(3-(4-fluoro-3-methylphenyl)-1H-pyrazol-4-yl)imidazo[1,2-a]pyridine-3-carbonitrile] | 0.001 µM | 0.104 µM
N#Cc1cnc2ccc(-c3c(-c4ccc(F)cc4)n[nH]c3C3CC3)cn12 [Example 84, 6-(5-cyclopropyl-3-(4-fluorophenyl)-1H-pyrazol-4-yl)imidazo[1,2-a]pyridine-3-carbonitrile] | 0.003 µM | 2.68 µM
Cc1cccc(-c2nn(C)c(C)c2-c2ccc3ncc(C(N)=O)n3c2)n1 [Example 65, 6-(1,5-dimethyl-3-(6-methylpyridin-2-yl)-1H-pyrazol-4-yl)imidazo[1,2-a]pyridine-3-carboxamide] | 0.001 µM | 0.194 µM
NC(=O)c1cnc2ccc(-c3c[nH]nc3-c3ccc(F)cc3)nn12 [Example 14, 6-(3-(4-fluorophenyl)-1H-pyrazol-4-yl)imidazo[1,2-b]pyridazine-3-carboxamide] | 0.004 µM | 0.885 µM
NC(=O)c1cnc2ccc(-c3c(-c4ccc(F)cc4)n[nH]c3C(F)(F)F)cn12 [Example 106, 6-(3-(4-fluorophenyl)-5-(trifluoromethyl)-1H-pyrazol-4-yl)imidazo[1,2-a]pyridine-3-carboxamide] | 0.001 µM | 6.66 µM
Clc1ccc(-c2n[nH]cc2-c2ccc3nccn3c2)cc1 [Example 45, 6-(3-(4-chlorophenyl)-1H-pyrazol-4-yl)imidazo[1,2-a]pyridine] | 0.112 µM | 4.23 µM
NC(=O)c1cnc2ccc(-c3c[nH]nc3-c3cccc(C(F)(F)F)n3)cn12 [Example 2, 6-(3-(6-(trifluoromethyl)pyridin-2-yl)-1H-pyrazol-4-yl)imidazo[1,2-a]pyridine-3-carboxamide] | 0.001 µM | 1.83 µM
Cc1cccc(-c2nn(CC(F)F)cc2-c2ccc3ncc(C#N)n3c2)n1 [Example 27, 6-(1-(2,2-difluoroethyl)-3-(6-methylpyridin-2-yl)-1H-pyrazol-4-yl)imidazo[1,2-a]pyridine-3-carbonitrile] | 0.003 µM | 11.4 µM
NC(=O)c1cnc2ccc(-c3c[nH]nc3-c3ccc(F)cc3)cn12 [Example 36, 6-(3-(4-fluorophenyl)-1H-pyrazol-4-yl)imidazo[1,2-a]pyridine-3-carboxamide] | 0.002 µM | 0.696 µM
N#Cc1cnc2ccc(-c3c[nH]nc3-c3ccc(Cl)cc3)cn12 [Example 46, 6-(3-(4-chlorophenyl)-1H-pyrazol-4-yl)imidazo[1,2-a]pyridine-3-carbonitrile] | 0.092 µM | 0.214 µM
Fc1ccc(-c2n[nH]cc2-c2ccc3nncn3c2)cc1 [Example 31, 6-(3-(4-fluorophenyl)-1H-pyrazol-4-yl)-[1,2,4]triazolo[4,3-a]pyridine, TFA] | 0.112 µM | 9.17 µM
CCc1[nH]nc(-c2cccc(C)n2)c1-c1ccc2nccn2c1 [Example 126, 6-(5-ethyl-3-(6-methylpyridin-2-yl)-1H-pyrazol-4-yl)imidazo[1,2-a]pyridine] | 0.001 µM | 3.15 µM
N#Cc1cnc2ccc(-c3cn(CC(F)F)nc3-c3ccc(F)c(Cl)c3)cn12 [Example 61, 6-(3-(3-chloro-4-fluorophenyl)-1-(2,2-difluoroethyl)-1H-pyrazol-4-yl)imidazo[1,2-a]pyridine-3-carbonitrile] | 0.007 µM | 2.28 µM

SMILES | IC50 [1] | IC50 [2]
Cc1cccc(-c2nn(C)c(C(C)C)c2-c2ccc3ncc(C#N)n3c2)n1 [Example 116, 6-(5-isopropyl-1-methyl-3-(6-methylpyridin-2-yl)-1H-pyrazol-4-yl)imidazo[1,2-a]pyridine-3-carbonitrile] | 0.001 µM | 5.77 µM
CCc1[nH]nc(-c2cccc(C)n2)c1-c1ccc2ncc(C#N)n2c1 [Example 124, 6-(5-ethyl-3-(6-methylpyridin-2-yl)-1H-pyrazol-4-yl)imidazo[1,2-a]pyridine-3-carbonitrile] | 0.001 µM | 2.06 µM
Cc1cccc(-c2n[nH]c(C(C)C)c2-c2ccc3nccn3c2)n1 [Example 118, 6-(5-isopropyl-3-(6-methylpyridin-2-yl)-1H-pyrazol-4-yl)imidazo[1,2-a]pyridine] | 0.001 µM | 2.69 µM
NC(=O)c1cnc2ccc(-c3c[nH]nc3-c3ccc(Cl)cc3)cn12 [Example 47, 6-(3-(4-chlorophenyl)-1H-pyrazol-4-yl)imidazo[1,2-a]pyridine-3-carboxamide] | 0.004 µM | 0.709 µM
CCOC(=O)c1cnc2ccc(-c3c[nH]nc3-c3ccc(F)cc3)cn12 [Example 57, ethyl 6-(3-(4-fluorophenyl)-1H-pyrazol-4-yl)imidazo[1,2-a]pyridine-3-carboxylate] | 0.003 µM | 3.71 µM
Fc1ccc(-c2n[nH]cc2-c2cc(F)c3nccn3c2)cc1 [Example 30, 8-fluoro-6-(3-(4-fluorophenyl)-1H-pyrazol-4-yl)imidazo[1,2-a]pyridine] | 0.591 µM | 10.3 µM
NC(=O)c1cnc2ccc(-c3c[nH]nc3-c3ccc(F)c(Cl)c3)cn12 [Example 42, 6-(3-(3-chloro-4-fluorophenyl)-1H-pyrazol-4-yl)imidazo[1,2-a]pyridine-3-carboxamide, TFA] | 0.001 µM | 0.33 µM
CC(C)c1[nH]nc(-c2ccc(Cl)cc2)c1-c1ccc2ncc(C(N)=O)n2c1 [Example 76, 6-(3-(4-chlorophenyl)-5-isopropyl-1H-pyrazol-4-yl)imidazo[1,2-a]pyridine-3-carboxamide] | 0.001 µM | 6.59 µM
Cc1cccc(-c2n[nH]c(C3CC3)c2-c2ccc3ncc(C#N)n3c2)n1 [Example 121, 6-(5-cyclopropyl-3-(6-methylpyridin-2-yl)-1H-pyrazol-4-yl)imidazo[1,2-a]pyridine-3-carbonitrile] | 0.001 µM | 0.216 µM
N#Cc1cnc2ccc(-c3c[nH]nc3-c3ccc(F)cc3)cn12 [Example 35, 6-(3-(4-fluorophenyl)-1H-pyrazol-4-yl)imidazo[1,2-a]pyridine-3-carbonitrile] | 0.011 µM | 0.221 µM
CC(C)c1[nH]nc(-c2ccc(F)cc2)c1-c1ccc2[nH]ncc2c1 [Example 70, 5-(3-(4-fluorophenyl)-5-isopropyl-1H-pyrazol-4-yl)-1H-indazole] | 0.001 µM | 6.1 µM
Cc1cccc(-c2nn(C)cc2-c2ccc3ncc(C#N)n3c2)n1 [Example 23, 6-(1-methyl-3-(6-methylpyridin-2-yl)-1H-pyrazol-4-yl)imidazo[1,2-a]pyridine-3-carbonitrile] | 0.001 µM | 2.48 µM
Cc1nc(-c2nn(C)cc2-c2ccc3ncc(C#N)n3c2)ccc1F [Example 11, 6-(3-(5-fluoro-6-methylpyridin-2-yl)-1-methyl-1H-pyrazol-4-yl)imidazo[1,2-a]pyridine-3-carbonitrile] | 0.001 µM | 5.42 µM
Cc1cccc(-c2n[nH]c(C(C)C)c2-c2ccc3ncc(C#N)n3c2)n1 [Example 114, 6-(5-isopropyl-3-(6-methylpyridin-2-yl)-1H-pyrazol-4-yl) imidazo [1,2-a]pyridine-3-carbonitrile] | 0.001 µM | 0.761 µM
Cc1cccc(-c2n[nH]c(C(C)C)c2-c2ccc3ncc(C(N)=O)n3c2)n1 [Example 115, 6-(5-isopropyl-3-(6-methylpyridin-2-yl)-1H-pyrazol-4-yl)imidazo[1,2-a]pyridine-3-carboxamide] | 0.001 µM | 0.009 µM
N#Cc1cnc2ccc(-c3c[nH]nc3-c3ccc(F)c(Cl)c3)cn12 [Example 41, 6-(3-(3-chloro-4-fluorophenyl)-1H-pyrazol-4-yl)imidazo[1,2-a]pyridine-3-carbonitrile] | 0.001 µM | 0.098 µM
